Key:
BEAS-2B cells = assay: Apoptosis (Hoechst 33342) and mitochondrial membrane potential (JC-1), BEAS-2B (Example 22); assay type: cell-based, human
Method: Severe DSBs may cause apoptosis. SPCA-1 and BEAS-2B cells were plated and cultured for 24 h before they were treated with 10 μM JAC4 for 24 h and 4 Gy X-ray for 24 h. The cells were stained with Hoechst 33342 (see Hoechst staining for apoptosis detection in Example 13) to evaluate the effect of JAC4 in combination with radiation on apoptosis. […] The decrease in mitochondrial membrane potential (JC-1) is a marker event in the early stage of apoptosis. The mitochondrial membrane potential was measured using fluorescent probe JC-1. The red fluorescence indicates a high mitochondrial membrane potential leading to JC-1 aggregate formation, and the green fluorescence indicates the mitochondrial membrane potential depolarization. The fluorescence ratio of red to green reflects the mitochondrial membrane potential and the number of early apoptotic cells.

lung tissue = assay: JWA, γ-H2AX, p-p65 in lung tissue of xenograft mice (immunofluorescence, immunoblot) (Example 21); assay type: in vivo
From the text: In order to verify the protection effect of JAC4 against X-ray-induced DNA damage in lung tissues, 3 mice were randomly selected from each group to provide the lung tissue for immunofluorescence staining, and proteins were extracted from the lung tissues of the other 3 mice for western immunoblot to detect the expression levels of JWA, γ-H2AX, and p-p65, thereby verifying the relation between the targets of JAC4 and the reduction of DNA damage and apoptotic damages in the lung tissues. The western blot procedures are detailed in Example 4, and the immunofluorescence staining procedures are as follows:
1. Dewaxing and hydration: Prepared paraffin sections were dewaxed in an oven at 60° C. for 2-3 h to ensure a tight attachment between the section and the slide; the sections were then dewaxed by soaking in xylene I, 30 min→xylene II, 30 min→xylene III, 30 min→absolute ethyl alcohol I, shaker, 5 min→absolute ethyl alcohol II, shaker, 5 min→95% ethyl alcohol, shaker, 5 min→85% ethyl alcohol, shaker, 5 min→75% ethyl alcohol, shaker, 5 min→PBS, shaker, 5 min×3.
2. Antigen retrieval: The washed sections were boiled in 500 mL of 1× antigen retrieval solution (20× sodium citrate buffer 25 mL, pH 6.0, diluted to 1× in 475 mL of PBS), then taken out 10 min after the solution started boiling, and cooled to room temperature.
3. Cleaning and blocking: The sections were washed with PBS for 5 min thrice on a shaker. Droplets on the sections were removed carefully without overdrying. The edges of the sections were marked with an immunofluorescent pen, and a blocking buffer (centrifuged at 12,000 g for 5 min) was dropwise added to completely cover the sections. The sections were blocked for 1 h at room temperature.
4. Cleaning and co-incubation with primary antibody: After removing the blocking buffer, the sections were washed with PBS for 5 min thrice on a shaker; the primary antibody (centrifuged at 6,000 g for 5 min) was added dropwise to cover the sections, and the sections were incubated into a humidified chamber overnight at 4° C.
5. Cleaning and co-incubation with secondary antibody: The sections were washed with PBS for 5 min thrice on a shaker before the fluorescent secondary antibody (centrifuged at 6,000 g for 5 min) was added dropwise away from light. The sections were incubated at room temperature for 1 h.
6. Cleaning, nucleus staining, and photographing: The whole procedure was performed away from light. The sections were washed with PBS for 5 min thrice on a shaker. An anti-fluorescence quenching blocker containing DAPI was added dropwise. The cover glass was mounted for sealing and slowly from one side to avoid bubbles. The sealed slices were incubated in a humidified chamber for 15 min and continuously photographed to give images under a laser confocal microscope.

C57BL/6 male mice = assay: Dose-response of protection against total body X-ray irradiation: body weight, small intestine villus length (Example 5); assay type: in vivo
Method: C57BL/6 male mice (24.8±1.6 g in body weight) aged 10 weeks were divided into 6 groups: a vehicle control group, a JAC4 (200 mg/kg) treatment group, a vehicle control+radiation group, and JAC4 intervention (50 mg/kg, 100 mg/kg, and 200 mg/kg)+radiation groups, with 12 mice in each group. JAC4 or an equal volume of vehicle (polyethylene glycol:ethanol:physiological saline=47.5:7.5:50, v/v/v) was orally administered to the mice once daily for 7 consecutive days. After that, the mice in the radiation groups were subjected to total body X-ray irradiation (6 Gy). The JAC4 or vehicle treatment was continued for 3 days.
The body weights of the mice before and after the total body X-ray irradiation were measured, and the body weight curves are shown in FIG. 8.
HE staining was performed on the small intestine tissues of mice subjected to total body X-ray irradiation. The length of the small intestine villi in all groups was measured and the results were statistically analyzed. The specific procedures are as follows: 3 mice were randomly selected from each group for statistical analysis of their small intestine tissue HE staining images, and for each mouse, 6 fields of view were randomly selected for inspection (** p<0.01, *** p<0.001).

SPCA-1 cells = assay: Plate colony formation, SPCA-1 (Example 22); assay type: cell-based, human
Method: The cell proliferation capacity was determined by a plate colony formation experiment, with the following specific procedures.
1. SPCA-1 and BEAS-2B cells (or SPCA-1 and BEAS-2B cells transfected with JWA-knockdown plasmids) in the exponential growth phase were plated in 6-well plates at a specific amount. The number of plated cells is as follows
2. After the cells adhered to the container wall, the cells were treated (or not treated) with […] JAC4 and treated with X-ray of 0, 2, 4, or 6 Gy. The medium was replaced with a fresh medium containing JAC4 at the corresponding concentration once every 2 days (or the cells were treated with X-ray of 0, 2, 4, or 6 Gy after adhesion, and the medium was replaced with a fresh medium once every 2 days).
3. After the cells were cultured for 10-14 days, colonies were visually observed. The culture medium was discarded, and the cells were fixed with methanol for 10-20 min, stained with crystal violet for 10 min, slowly washed with flowing clear water thrice, photographed, and counted for colonies containing>50 cells.
4. The colony forming efficiency (CFE)=(number of colonies formed/number of seeded cells) 100% was calculated, and the cell survival fraction (SF)=(colony forming efficiency of treatment group/colony forming efficiency of 0 Gy group)×100% was calculated from the colony forming efficiency.

[1] = JAC4+X-ray group relative to X-ray group
[2] = JAC4 group relative to control group

Question: With c1ccc(CSc2nnc(C3COc4ccccc4O3)o2)nc1 (centres unmarked) [JAC4] as the compound, how does the “apoptosis (Hoechst 33342)” value (BEAS-2B cells; 10 μM JAC4 24 h + 4 Gy X-ray 24 h) read?
Answer: The value was “decreased the pro-apoptotic effect of X-ray”.

Question: What about the “mitochondrial membrane potential (JC-1)” value (BEAS-2B cells; JAC4 in combination with X-ray) of the same compound?
Answer: Its value is “reversed the X-ray-induced decrease in mitochondrial membrane potential”.

Question: What about the “JWA protein level in lung tissue (immunoblot)” value (lung tissue; [1]) of the same compound?
Answer: Its value is 1.25 folds.

Question: What about the “p-p65 protein level in lung tissue (immunoblot)” value (lung tissue; [1]) of the same compound?
Answer: Its value is 0.61 folds.

Question: And the “γ-H2AX protein level in lung tissue (immunoblot)” value (lung tissue; [1])?
Answer: Its value is 0.83 folds.

Question: And the “fluorescence intensities of γ-H2AX, TNF-α, and TGF-β1 in lung tissue” value (lung tissue; JAC4+X-ray group vs X-ray group, immunofluorescence)?
Answer: Its value is “significantly decreased”.

Question: And the “JWA fluorescence intensity in lung tissue” value (lung tissue; JAC4 and JAC4+X-ray groups vs control group, immunofluorescence)?
Answer: The value was “higher JWA fluorescence intensity as compared with the control group”.

Question: And the “JWA protein level in lung tissue (immunoblot)” value (lung tissue; [2])?
Answer: Its value is 4.23 folds.

Question: And the “p-p65 protein level in lung tissue (immunoblot)” value (lung tissue; [2])?
Answer: Its value is 0.63 folds.

Question: What about the “γ-H2AX protein level in lung tissue (immunoblot)” value (lung tissue; [2]) of the same compound?
Answer: The value was 0.91 folds.

Question: And the “body weight loss after radiation” value (C57BL/6 male mice; JAC4 50, 100, 200 mg/kg oral + TBI 6 Gy vs vehicle+radiation)?
Answer: Its value is “slower body weight loss”.

Question: What about the “small intestine villus length” value (C57BL/6 male mice; day 3 after TBI 6 Gy, JAC4 50 mg/kg oral) of the same compound?
Answer: The value was 249.42±27.19 μm.

Question: What about the “small intestine villus length” value (C57BL/6 male mice; day 3 after TBI 6 Gy, JAC4 100 mg/kg oral) of the same compound?
Answer: The value was 244.78±40.74 μm.

Question: And the “small intestine villus length” value (C57BL/6 male mice; day 3 after TBI 6 Gy, JAC4 200 mg/kg oral)?
Answer: Its value is 212.43±27.99 μm.

Question: And the “small intestine villus length” value (C57BL/6 male mice; day 7 after TBI 6 Gy, JAC4 50 mg/kg oral)?
Answer: Its value is 235.57±24.34 μm.

Question: And the “small intestine villus length” value (C57BL/6 male mice; day 7 after TBI 6 Gy, JAC4 100 mg/kg oral)?
Answer: The value was 254.95±28.91 μm.

Question: What about the “small intestine villus length” value (C57BL/6 male mice; day 7 after TBI 6 Gy, JAC4 200 mg/kg oral) of the same compound?
Answer: Its value is 259.17±17.56 μm.

Question: And the “small intestine villus length” value (C57BL/6 male mice; non-radiation, JAC4 200 mg/kg oral)?
Answer: The value was 306.78±14.64 μm.

Question: What about the “cell survival (radiosensitization curve)” value (SPCA-1 cells; SPCA-1, 10 μM JAC4 + X-ray vs X-ray monotherapy) of the same compound?
Answer: The value was “significantly reduced”.

Question: What about the “number of colonies formed” value (SPCA-1 cells; SPCA-1, JAC4 in combination with X-ray) of the same compound?
Answer: Its value is “decreased”.

From patent publication US20250345318A1, “COMPOUND AND USE THEREOF IN PREVENTING OR TREATING RADIATION DAMAGE” (SIMCERE PHARMACEUTICAL CO., LTD., priority 2022, published 2025)
